The text below walks through data of US20100190733A1, “Methods of Treating Muscular Dystrophies” (Primus Pharmaceuticals, Inc., priority 2009, published 2010).

Data set [1] concerns mdx mice. The settings on record: previous studies (Ref. 36-37); cited from earlier work.
Data set [2] relates to mdx mice. To be noted: previous studies (Ref. 38 and 39); cited from earlier work.
For data set [3], the system named is mdx mice. The data set can be described thus: Immunohistochemistry of biceps (myogenin, dMHC), Example 2. The settings on record: genistein 2 mg/kg/ip daily for 5 weeks vs vehicle. It is filed as in vivo.
The test system of data set [4] is Extensor digitorum longus muscles (EDL) of mdx mice. Briefly: Electrophysiological studies of isolated EDL muscle, Example 2. It is filed as in vivo. To be noted: genistein 2 mg/kg/ip daily for 5 weeks vs vehicle. The protocol:
(§1) Mdx animals were purchased from Charles River Italy (Calco, Milan, Italy). Animals were 4 weeks old on arrival and were acclimatized for 5 days before the study. At the beginning of the experiment the mice, which were at that point 5 weeks old, weighted about 20-22 grams. The mice were treated daily for 5 weeks with either the phytoestrogen genistein (Sigma, Mo., USA) at a dose of 2 mg/kg/ip or its vehicle (1:3 DMSO: 0.9% NaCl solution).
Extensor digitorum longus muscles (EDL) were vertically mounted in a temperature controlled (30°) chamber containing Krebs Ringer bicarbonate buffer (Sigma k4002) and continuously gassed with a mixture of 95% O2 and 5% CO2. One end of the muscle was linked to a fixed clamp while the other end was connected to the lever-arm of an Aurora Scientific Instruments 300B actuator/transducer system using a nylon wire. […] For each experiment, the initial muscle length was adjusted to the length (L0) which produced the highest twitch force. The optimal fiber length (Lf) was determined by multiplying the value of L0 for the fiber length by the muscle length ratio (0.44 for the EDL and 0.71 for soleus). The muscle cross-sectional area (CSA) was determined for the EDL and soleus by dividing the muscle mass (m) by the product of the Lf and the density of mammalian skeletal muscle (1.06 mg/mm^3).
In order to measure force generation, the muscle was initially stimulated with two 0.5 ms single pulses (with a rest time of 150 s) to measure twitch force, twitch force/cross sectional area (CSA), and contraction time (the time that the isolated muscle needs to reach the peak force after delivery of a single electrical pulse).
In order to measure high-stress eccentric contractions, the muscle was stimulated with five tetanic stimulations (train of 0.1 ms pulses delivered at 180 Hz, for 0.6 s) to evaluate the maximum isometric force (and maximum force/cross sectional area (CSA)) and the decline in maximal isometric force. The latter was measured by dividing the force value at the last stimulation (F5) by the force value at the first stimulation (F1), and used as a index of myofiber injury caused by high-stress contractions.

The nature of a further data set: Body weight, Example 2. It is filed as in vivo. The settings on record: mdx mice, genistein 2 mg/kg/ip daily for 5 weeks vs vehicle. The procedure: as §1
(§2) Mice were weighed and examined for forelimb strength at baseline and at the end of the experiment. Strength testing consisted of five separate measurements using a grip meter attached to a force transducer that measures the peak force generated (Stoelting Co., Wooddale Ill., USA). Specifically, the mouse grabbed the trapeze bar as it is pulled backward and the peak pull force in grams is recorded on a display. The three highest measurements for each animal were averaged to give the strength score.

For data set [5], the system named is mdx mice. The data set can be described thus: Histological studies of biceps muscle, Example 2. The settings on record: genistein 2 mg/kg/ip daily for 5 weeks vs vehicle. It is filed as in vivo. The protocol:
as §1
Transverse cryostat sections 10 μm thick were obtained from the midpoint of the biceps and TA muscle body. The whole muscle cross sections (corresponding to a mean area of 2.10 mm^2 in biceps and 2.25 mm^2 in TA) were stained with hematoxylin-eosin and were examined by a blinded observer using the AxioVision 2.05 image analysis system equipped with an Axiocam camera scanner (Zeiss, Munchen, Germany). The following four areas with patchy distribution were recognized: 1) normal fibers identified by the presence of peripheral nuclei; 2) necrotic fibers identified by pale cytoplasm and phagocytosis; 3) regenerating fibers identified by small size, central nuclei with/without basophilic cytoplasm; 4) centrally nucleated fibers identified by normal size but with central nuclei. The area occupied by normal fibers, necrotic fibers, regenerating fibers, or centrally nucleated fibers was expressed as a percentage of the area of the whole muscle cross section.

The test system of the next data set is NF-κB. Briefly: NF-κB activation (EMSA) in skeletal muscle, Example 2. It is filed as in vivo. To be noted: mdx mice skeletal muscle, genistein 2 mg/kg/ip daily for 5 weeks vs vehicle. The protocol: as §1
Isolation of nuclear proteins in approximately 50 mg of frozen skeletal muscle tissue was performed according to recently detailed method (See ref 15 below). Twenty micrograms of nuclear extract were incubated for 30 min at room temperature with 50 fmol of biotin-end-labeled 45-mer double-strand NF-κB oligonucleotide from the HIV long terminal repeat, 5-[…] GGCGTGGG-3 containing 2(underlined) NF-κB binding sites. Both complimentary oligos were end-labeled separately and then annealed prior to use. […] The results were expressed as relative integrated intensity compared with normal controls, considering exposure time, background levels and known protein concentration of an Epstein Barr virus nuclear antigen-1 extract, which was used as EMSA control.

Data set [6] deals with mdx mice. The data set can be described thus: Serum creatine kinase (CK) evaluation, Example 2. It is filed as in vivo. The settings on record: genistein 2 mg/kg/ip daily for 5 weeks vs vehicle. The procedure:
as §1
Blood samples were centrifuged at 6000 g and the serum was stored at −80° C. until the day of analysis. Serum CK was evaluated at 37° C. using a commercially available kit (Randox Laboratories LTD, Antrim, UK). The results are expressed as U/L.

For data set [7], the system named is mdx mice. Briefly: Forelimb strength and fatigue by grip meter, Example 2. It is filed as in vivo. The settings on record: genistein 2 mg/kg/ip daily for 5 weeks vs vehicle. The protocol: as §1, §2
The degree of fatigue was calculated by comparing the first two pulls to the last two pulls. The decrease between pulls 1+2 and pulls 4+5 provided the measure of fatigue.

A further data set in a line: Body weight, Example 1. It is filed as in vivo. The settings on record: WT mice, after 5 weeks daily i.p. treatment, compared to WT mice treated with vehicle. The protocol:
(§3) Five-week old mdx and WT mice were treated for 5 weeks with daily 100 μl intraperitoneal injections with either flavocoxid (a mixture of catechin and baicalin) (n=8, 5 mg/kg), methylprednisolone (n=8, 0.75 mg/Kg) or vehicle (n=8, 33% (v/v) dimethylsulphoxide (DMSO) in 0.9% NaCl). At the end of the experiments, animals were anaesthetized with intraperitoneal administration of sodium penthobarbital (80 mg/kg). Blood was then collected by intracardiac puncture and used to analyze creatine kinase (CK) levels. The biceps, quadriceps and extensor digitorum longus (EDL) muscles were removed bilaterally and immediately frozen in liquid nitrogen-cooled isopentane and stored at −80° C. for histological and biochemical evaluations.
Mice were weighed and examined for forelimb strength at baseline and after 5 weeks of treatment. Strength testing consisted of five separate measurements using a grip meter attached to a force transducer that measures peak force generated (Stoelting Co, Wooddale Ill., USA). Briefly, the mouse grabed the trapeze bar as it was pulled backward and the peak pull force in grams was recorded on a display upon release by the animal. The three highest measurements for each animal were averaged to give the strength score. The degree of fatigue was calculated by comparing the first two pulls to the last two pulls. […]

For data set [8], the system named is WT and mdx mice. The data set can be described thus: Serum creatine kinase (CK) evaluation, Example 1. It is filed as in vivo. The settings on record: after 5 weeks daily i.p. treatment, mean±SD. The procedure:
as §3
Blood samples were centrifuged at 6,000 RPM and the serum stored at −80° C. until the day of analysis. Serum CK was evaluated at 37° C. using a commercially available kit (Randox Laboratories LTD, Crumlin, Co. Antrim U.K). The results were expressed as U/L.

Data set [9] has as its system WT and mdx mice. Briefly: Forelimb strength and fatigue by grip meter, Example 1. The settings on record: flavocoxid 5 mg/kg, methylprednisolone 0.75 mg/Kg. It is filed as in vivo. The protocol:
as §3
Mice were weighed and examined for forelimb strength at baseline and after 5 weeks of treatment. Strength testing consisted of five separate measurements using a grip meter attached to a force transducer that measures peak force generated (Stoelting Co, Wooddale Ill., USA). Briefly, the mouse grabed the trapeze bar as it was pulled backward and the peak pull force in grams was recorded on a display upon release by the animal. The three highest measurements for each animal were averaged to give the strength score. The degree of fatigue was calculated by comparing the first two pulls to the last two pulls. The decrement between pulls 1+2 and pulls 4+5 gave the measure of fatigue.

The subject of data set [10] is muscle regeneration after traumatic injury. The settings on record: systemic administration (Ref. 21); cited from earlier work.
Where [11] appears, read: end of 5 weeks daily i.p. treatment.

SMILES strings stand for the structures.

`S=C(S)N1CCCC1` [pyrrolidine dithiocarbamate]: in the data set with mdx mice [1], the “effects on functional, biochemical and morphological parameters of mdx mice muscle fibers” value was “beneficial effects”.
For the compound `CC(=O)SCCC1Cc2c(C)c(OC(=O)CCC(=O)O)c(C)c(C)c2O1` (racemic) [IRFI-042, (±)-5-emisuccinoyl-2-[2-(acetylthio)ethyl]-2,3-dihydro-4,6,7-trimethylbenzofuran], the “effects on functional, biochemical and morphological parameters of mdx mice muscle fibers” value in the data set with mdx mice [1] is listed as “beneficial effects”.
`O=C(O[C@@H]1Cc2c(O)cc(O)cc2O[C@@H]1c1cc(O)c(O)c(O)c1)c1cc(O)c(O)c(O)c1` [epigallocatechin gallate]: the “effect on mdx mice” value in the data set with mdx mice [2] is reported as “beneficial effect”.
As for `O=c1c(-c2ccc(O)cc2)coc2cc(O)cc(O)c12` [genistein, 5,7-Dihydroxy-3-(4-hydroxyphenyl)chromen-4-one], in the data set on mdx mice [3], the “myogenin expression in the nuclei of muscles” value is reported as “significantly increased”, the “number of dMHC positive fibers” value is listed as “not found to modify” and the “number of myogenin positive satellite cells (SC)” value is “not found to modify”. Further, in data set [4], the contraction time result is on record as “not found to modify”, the “decline of maximal isometric force (F5/F1 after five tetanic stimulations)” value is on record as “reduced”, the “maximum force/CSA” value is “not found to modify” and the “twice force/CSA” value is given as “not found to modify”. Moreover, the twitch force entry in data set [4] is “not found to modify”. For the same compound, the body weight entry in “Body weight, Example 2” is listed as “not significantly different”. Besides, in the data set on mdx mice [5], the “necrosis in the biceps” value was “decreased”, the “percentage of centrally nucleated fibers in the biceps” value is “not found to modify”, the “percentage of normal muscular area in the biceps” value is “not found to modify” and the “percentage of regenerating fibers in the biceps” value is recorded as “increased”. In the data set on NF-κB, the NF-κB activation result was “significantly decreased”. For the same compound, the CK levels entry in the data set with mdx mice [6] was “statistically significant reduction”. In addition, in the data set on mdx mice [7], the forelimb strength entry is reported as “significantly augmented”, the level of fatigue entry is reported as “slightly lower” and the “strength normalized to weight” value was “higher”.
Take `C[C@H]1C[C@@H]2[C@H]([C@@H](O)C[C@@]3(C)[C@H]2CC[C@]3(O)C(=O)CO)[C@@]2(C)C=CC(=O)C=C12` [methylprednisolone]: the body weight entry in the data set “Body weight, Example 1” is “increase in body weight”. Besides, the “serum CK levels” value with WT and mdx mice [8] (WT mice) amounted to 365±28 U/L. The “serum CK levels” value in the data set on WT and mdx mice [8] (mdx mice) is 1737±103 U/L. Further, the “fatigue levels compared to vehicle-treated mdx” value with WT and mdx mice [9] (after 5 weeks daily i.p. treatment) is −13%. In the data set with WT and mdx mice [9] (setting [11]), the “forelimb strength compared to vehicle-treated mdx mice” value is “+30%” and the “strength normalized to weight compared to vehicle-treated mdx mice” value is given as “+27%”.
As for `COc1cc(/C=C/C(=O)CC(=O)/C=C/c2ccc(O)c(OC)c2)ccc1O` [curcumin], the “muscle regeneration after traumatic injury” value in [10] is given as “stimulates muscle regeneration”.
